Test results as given in patent US20130266964A1, “METHOD OF DETECTING ENDOTHELIAL PROGENITOR CELLS” (PURDUE RESEARCH FOUNDATION, priority 2006, published 2013).

Tests used:
[1] = biological target: T1, cell surface folate receptors on folate receptor positive M109 cells (Mus musculus, UniProt P35846); assay: fluorescence measurement of binding to cell surface folate receptors on M109 cells in culture; assay type: cell-based
T1 construct: cell surface folate receptors on folate receptor positive M109 cells in culture; endogenous in cells; host or cells: M109 cells
T1 sequence (P35846 25-232): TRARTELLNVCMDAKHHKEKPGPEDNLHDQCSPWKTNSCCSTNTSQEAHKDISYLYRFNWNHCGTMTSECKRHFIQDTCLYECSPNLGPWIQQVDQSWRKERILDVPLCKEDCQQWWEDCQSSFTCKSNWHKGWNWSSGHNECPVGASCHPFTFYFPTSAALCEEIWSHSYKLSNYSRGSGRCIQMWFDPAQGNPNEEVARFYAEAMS
Experimental: AlexaFluor 488 C5-maleimide (Molecular Probes, Eugene, Oreg.) was dissolved in dimethyl sulfoxide (DMSO) (0.5 mg in 50 μl DMSO). A 1.5 molar equivalent (0.57 mg) of Folate-Cys was added to the solution and mixed for 4 hours at room temperature. Folate-Cys-AlexaFluor 488 (Folate-AlexaFluor) was purified by reverse-phase HPLC on a C18 column at a flow rate of 1 ml/min. The mobile phase, consisting of 10 mM NH4HCO3 buffer, pH 7.0 (eluent A) and acetonitrile (eluent B), was maintained at a 99:1 A:B ratio for the first minute and then changed to 1:99 A:B in a linear gradient over the next 29 minutes. Folate-Cys-AlexaFluor 488 eluted at 20 minutes. The product was confirmed by mass spectroscopy and the biologic activity was confirmed by fluorescence measurement of its binding to cell surface folate receptors on folate receptor positive M109 cells in culture.
Texas Red C2-maleimide (Molecular Probes, Eugene, Oreg.) was dissolved in dimethyl sulfoxide (DMSO) (1 mg in 200 μl DMSO). A 1.4 molar equivalent (1 mg) of Folate-Cys was added to the solution and mixed for 4 hours at room temperature. […] The product was confirmed by mass spectroscopy and the biologic activity was confirmed by fluorescence measurement of its binding to cell surface folate receptors on folate receptor positive M109 cells in culture.

[2] = tested on: folate receptor on CD133+ Flk1+ endothelial progenitor cells; assay: folate-FITC binding to endothelial progenitor cells quantified by flow cytometry; assay type: cell-based, BALB/c mice; settings: 100 nM folate-FITC
Experimental: Female 6- to 8-week-old BALB/c mice were injected in the peritoneal cavity with either Complete Freund's Adjuvant (CFA; 50-100 μL), Pseudomonas aeruginosa (1×10^7 CFU (colony forming units)), or Yersinia enterocolitica (1×10^6 CFU). Cells were isolated from the peritoneal cavity by lavage with 8 mL of sterile phosphate-buffered saline (PBS) 2-4 days later. The cells were pelleted by centrifugation (400×g, 10 minutes at room temperature) and resuspended in folate-deficient RPMI-1640 media (FD-RPMI; Gibco) containing 10% heat-inactivated fetal bovine serum (FBS), penicillin (100 IU/mL) and streptomycin (100 μg/mL). Peritoneal extracted cells were seeded at densities of 1×10^6 cells/microcentrifuge tube for antibody and folate conjugate studies.
All binding experiments were conducted on ice or in a 4° C. cold room unless indicated otherwise. All antibody labeling was optimized by titration. Optimal labeling was most often achieved with a 1/1000-1/10,000 dilution of the manufacture's stock antibody solution. After cells were labeled with antibodies, the samples were washed twice with PBS to remove non-specific binding. The samples were then incubated with a 100 nM concentration of folate-FITC for 45 minutes. […] All samples were analyzed by flow cytometry using a Becton Dickinson FACS Calibur (BD, Franklin Lakes, N.J.).

Row | SMILES | biologic activity: binding to cell surface folate receptors [1] | binding to CD133+ Flk1+ endothelial progenitor cells ([2]; 45 minutes, on ice or 4° C., absence of unlabeled folic acid) | binding to CD133+ Flk1+ endothelial progenitor cells with competition ([2]; pre-incubation with 100-fold excess of unlabeled folic acid (10 μM))
1 | N=c1ccc2c(-c3ccc(C(=O)NCCCCCN4C(=O)CC(SCC(NC(=O)CCC(NC(=O)c5ccc(NCc6cnc7nc(N)[nH]c(=O)c7n6)cc5)C(=O)O)C(=O)O)C4=O)cc3C(=O)O)c3ccc(N)c(S(=O)(=O)O)c3oc-2c1S(=O)(=O)O (stereo not shown) [Folate-Cys-AlexaFluor 488] | confirmed |  | 
2 | Nc1nc2ncc(CNc3ccc(C(=O)NC(CCC(=O)NC(CSC4CC(=O)N(CCNS(=O)(=O)c5ccc(C6=c7cc8c9c(c7Oc7c6cc6c%10c7CCCN%10CCC6)CCC[N+]=9CCC8)c(S(=O)(=O)O)c5)C4=O)C(=O)O)C(=O)O)cc3)nc2c(=O)[nH]1 (stereo not shown) [Folate-Cys-Texas Red] | confirmed |  | 
3 | Nc1nc2ncc(CNc3ccc(C(=O)NC(CCC(=O)NCCNC(=S)Nc4ccc(C(=O)O)c(-c5c6ccc(=O)cc-6oc6cc(O)ccc56)c4)C(=O)O)cc3)nc2c(=O)[nH]1 (stereo not shown) [folate-FITC] |  | bound | competed
